Reference: patent US11261186B2, “Biaryl derivative as GPR120 agonist” (LG CHEM, LTD., priority 2014, dated 2022)

Biological target: T1, hGPR120 (Homo sapiens, UniProt Q5NUL3)
T1 construct: expressed in transfected cells; host or cells: CHO-K1
T1 sequence (Q5NUL3 1-361): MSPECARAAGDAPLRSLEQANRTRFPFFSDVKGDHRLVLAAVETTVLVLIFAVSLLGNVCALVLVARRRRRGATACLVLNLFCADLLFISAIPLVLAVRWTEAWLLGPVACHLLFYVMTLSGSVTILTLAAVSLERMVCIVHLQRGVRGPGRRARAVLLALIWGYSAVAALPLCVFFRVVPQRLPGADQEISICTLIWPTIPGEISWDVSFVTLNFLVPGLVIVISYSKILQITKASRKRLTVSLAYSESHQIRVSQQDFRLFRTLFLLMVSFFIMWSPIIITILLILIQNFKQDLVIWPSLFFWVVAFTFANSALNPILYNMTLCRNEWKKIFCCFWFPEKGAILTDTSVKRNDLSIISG
Experiment: Measurement of Activity of GPR120 Agonist (Cell-Based Assay), Calcium 5 dye fluorescence
Conditions: CHO-K1 cells expressing Ga16 and hGPR120
Summary of the method: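 CHO-K1 cells co-expressing Gα16 and hGPR120, plated 18 h, loaded 1 h at 37°C with Calcium 5 dye. Serially diluted agonists added at 0.5% DMSO final; fluorescence read at Ex 485/Em 525 nm and expressed as relative % of DMSO-only signal.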

Row | SMILES | EC50 [nM]
1 | O=C(O)CCC1CCc2cc(-c3cccc(OC4CCC4)c3)ccc2O1 (centres unmarked) [Example 555, 3-[6-(3-cyclobutoxy-phenyl)-chroman-2-yl]-propionic acid] | < 200
2 | CCCOc1cccc(-c2ccc3c(c2)CCC(CCC(=O)O)O3)n1 (centres unmarked) [Example 556, 3-[6-(6-propoxy-pyridin-2-yl)-chroman-2-yl]-propionic acid] | < 200
3 | O=C(O)CCCOc1c(F)cc(-c2ccc3cc[nH]c3c2)cc1F [Example 557, 4-[2,6-difluoro-4-(1H-indol-6-yl)-phenoxy]-butanoic acid] | 2000 to 20000
4 | CC(C)n1ccc2ccc(-c3cc(F)c(OCCCC(=O)O)c(F)c3)cc21 [Example 558, 4-[2,6-difluoro-4-(1-isopropyl-1H-indol-6-yl)-phenoxy]-butanoic acid] | < 200
5 | O=C(O)CCCOc1c(F)cc(-c2ccc3ccn(CC4CC4)c3c2)cc1F [Example 559, 4-[4-(1-cyclopropylmethyl-1H-indol-6-yl)-2,6-difluoro-phenoxy]-butanoic acid] | < 200
6 | O=C(O)CC1CCN(c2c(F)cc(-c3cccc(OCC4CC4)n3)cc2F)C1 (centres unmarked) [Example 560, {1-[4-(6-cyclopropylmethoxy-pyridin-2-yl)-2,6-difluoro-phenyl]-pyrrolidin-3-yl}-acetic acid] | < 200
7 | O=C(O)CC1CCN(c2c(F)cc(-c3cccc(OC4CCC4)n3)cc2F)C1 (centres unmarked) [Example 561, {1-[4-(6-cyclobutoxy-pyridin-2-yl)-2,6-difluoro-phenyl]-pyrrolidin-3-yl}-acetic acid] | < 200
8 | CC(C)n1cc(Cl)c2ccc(-c3cc(F)c(OCCCC(=O)O)c(F)c3)cc21 [Example 562, 4-[4-(3-chloro-1-isopropyl-1H-indol-6-yl)-2,6-difluoro-phenoxy]-butanoic acid] | 2000 to 20000
9 | CC(C)Oc1cccc(-c2cc(F)c(N3CCC(CC(=O)O)C3)c(F)c2)n1 (centres unmarked) [Example 563, {1-[2,6-difluoro-4-(6-isopropoxy-pyridin-2-yl)-phenyl]-pyrrolidin-3-yl}-acetic acid] | < 200
10 | O=C(O)CC1CCN(c2c(F)cc(-c3cccc(OCC4CCC4)n3)cc2F)C1 (centres unmarked) [Example 564, {1-[4-(6-cyclobutylmethoxy-pyridin-2-yl)-2,6-difluoro-phenyl]-pyrrolidin-3-yl}-acetic acid] | 200 to 2000
11 | O=C(O)CCCOc1c(F)cc(-c2ccc(COCC3CC3)s2)cc1F [Example 565, 4-[4-(5-cyclopropylmethoxymethyl-thiophen-2-yl)-2,6-difluoro-phenoxy]-butanoic acid] | < 200
12 | O=C(O)CCCOc1c(F)cc(-c2csc(COCC3CC3)c2)cc1F [Example 566, 4-[4-(5-cyclopropylmethoxymethyl-thiophen-3-yl)-2,6-difluoro-phenoxy]-butanoic acid] | < 200
13 | O=C(O)CC1CCN(c2c(F)cc(-c3csc(COCC4CC4)c3)cc2F)CC1 [Example 567, {1-[4-(5-cyclopropylmethoxymethyl-thiophen-3-yl)-2,6-difluoro-phenyl]-piperidin-4-yl}-acetic acid] | 200 to 2000
14 | Cc1nc(COCC2CC2)c(-c2cc(F)c(OCCCC(=O)O)c(F)c2)s1 [Example 568, 4-[4-(4-cyclopropylmethoxymethyl-2-methyl-thiazol-5-yl)-2,6-difluoro-phenoxy]-butanoic acid] | 2000 to 20000
15 | O=C(O)CC1CCN(c2c(F)cc(-c3ccc(COCC4CC4)s3)cc2F)CC1 [Example 569, {1-[4-(5-cyclomethoxymethyl-thiophen-2-yl)-2,6-difluoro-phenyl]-piperidin-4-yl}-acetic acid] | 2000 to 20000
16 | Cc1nc(COCC2CC2)c(-c2cc(F)c(N3CCC(CC(=O)O)CC3)c(F)c2)s1 [Example 570, {1-[4-(4-cyclopropylmethoxymethyl-2-methyl-thiazol-5-yl)-2,6-difluoro-phenyl]-piperidin-4-yl}-acetic acid] | 200 to 2000
17 | CC(C)COCc1cc(-c2cc(F)c(OCCCC(=O)O)c(F)c2)cs1 [Example 572, 4-[2,6-difluoro-4-(5-isobutoxymethyl-thiophen-3-yl)-phenoxy]-butanoic acid] | < 200
18 | O=C(O)CCCOc1c(F)cc(-c2csc(COC3CCC3)c2)cc1F [Example 573, 4-[4-(5-cyclobutoxymethyl-thiophen-3-yl)-2,6-difluoro-phenoxy]-butanoic acid] | < 200
19 | O=C(O)CCCOc1c(F)cc(-c2sccc2COCC2CC2)cc1F [Example 574, 4-[4-(3-cyclopropylmethoxymethyl-thiophen-2-yl)-2,6-difluoro-phenoxy]-butanoic acid] | < 200

Row | SMILES | EC50 [nM]
20 | Cc1cc(OC2CCC2)nc(-c2cc(F)c(N3CCC(CC(=O)O)C3)c(F)c2)n1 (centres unmarked) [Example 575, {1-[4-(4-cyclobutoxy-6-methyl-pyrimidin-2-yl)-2,6-difluoro-phenyl]-pyrrolidin-3-yl}-acetic acid] | 200 to 2000
21 | Cc1cc(OCC2CC2)nc(-c2cc(F)c(N3CCC(CC(=O)O)C3)c(F)c2)n1 (centres unmarked) [Example 576, {1-[4-(4-cyclopropylmethoxy-6-methyl-pyrimidin-2-yl)-2,6-difluoro-phenyl]-pyrrolidin-3-yl}-acetic acid] | < 200
22 | Cc1cc(OC2CCC2)nc(-c2cc(F)c(N3CCC(CC(=O)O)C3)c(F)c2)c1 (centres unmarked) [Example 577, {1-[4-(6-cyclobutoxy-4-methyl-pyridin-2-yl)-2,6-difluoro-phenyl]-pyrrolidin-3-yl}-acetic acid] | 200 to 2000
23 | O=C(O)CC1CCN(c2c(F)cc(-c3cncc(OC4CCC4)n3)cc2F)C1 (centres unmarked) [Example 578, {1-[4-(6-cyclobutoxy-pyrazin-2-yl)-2,6-difluoro-phenyl]-pyrrolidin-3-yll}-acetic acid] | < 200
24 | O=C(O)CC1CCN(c2c(F)cc(-c3nccc(OC4CCC4)n3)cc2F)C1 (centres unmarked) [Example 579, {1-[4-(4-cyclobutoxy-pyrimidin-2-yl)-2,6-difluoro-phenyl]-pyrrolidin-3-yl}-acetic acid] | < 200
25 | O=C(O)CC1CCN(c2c(F)cc(-c3cncc(OCC4CC4)n3)cc2F)C1 (centres unmarked) [Example 580, {1-[4-(6-cyclopropylmethoxy-pyrazin-2-yl)-2,6-difluoro-phenyl]-pyrrolidin-3-yl}-acetic acid] | < 200
26 | O=C(O)CC1CCN(c2c(F)cc(-c3nccc(OCC4CC4)n3)cc2F)C1 (centres unmarked) [Example 581, {1-[4-(4-cyclopropylmethoxy-pyrimidin-2-yl)-2,6-difluoro-phenyl]-pyrrolidin-3-yl}-acetic acid] | < 200
27 | O=C(O)CC1CCN(c2c(F)cc(-c3csc(OC4CCC4)n3)cc2F)C1 (centres unmarked) [Example 582, {1-[4-(2-cyclobutoxy-thiazol-4-yl)-2,6-difluoro-phenyl]-pyrrolidin-3-yll}-acetic acid] | 200 to 2000
28 | O=C(O)CC1CCN(c2c(F)cc(-c3csc(OCC4CC4)n3)cc2F)C1 (centres unmarked) [Example 583, {1-[4-(2-cyclopropylmethoxy-thiazol-4-yl)-2,6-difluoro-phenyl]-pyrrolidin-3-yl}-acetic acid] | 200 to 2000
29 | COc1cncc(-c2cc(F)c(N3CCC(CC(=O)O)C3)c(F)c2)n1 (centres unmarked) [Example 584, {1-[2,6-difluoro-4-(6-methoxy-pyrazin-2-yl)-phenyl]-pyrrolidin-3-yl}-acetic acid] | 200 to 2000
30 | CCOc1cncc(-c2cc(F)c(N3CCC(CC(=O)O)C3)c(F)c2)n1 (centres unmarked) [Example 585, {1-[4-(6-ethoxy-pyrazin-2-yl)-2,6-difluoro-phenyl]-pyrrolidin-3-yl}-acetic acid] | < 200
31 | CC(C)Oc1cncc(-c2cc(F)c(N3CCC(CC(=O)O)C3)c(F)c2)n1 (centres unmarked) [Example 586, {1-[2,6-difluoro-4-(6-isopropoxy-pyrazin-2-yl)-phenyl]-pyrrolidin-3-yl}-acetic acid] | < 200
32 | Cc1cc(OC(C)C)nc(-c2cc(F)c(N3CCC(CC(=O)O)C3)c(F)c2)n1 (centres unmarked) [Example 587, {1-[2,6-difluoro-4-(4-isopropoxy-6-methyl-pyrimidin-2-yl)-phenyl]-pyrrolidin-3-yl}-acetic acid] | 200 to 2000
33 | CCCOc1cc(C)nc(-c2cc(F)c(N3CCC(CC(=O)O)C3)c(F)c2)n1 (centres unmarked) [Example 589, {1-[2,6-difluoro-4-(4-methyl-6-propoxy-pyrimidin-2-yl)-phenyl]-pyrrolidin-3-yl}-acetic acid] | < 200
34 | CCOc1cc(C)nc(-c2cc(F)c(N3CCC(CC(=O)O)C3)c(F)c2)n1 (centres unmarked) [Example 590, {1-[4-(4-ethoxy-6-methyl-pyrimidin-2-yl)-2,6-difluoro-phenyl]-pyrrolidin-3-yl}-acetic acid] | < 200
35 | Cc1nsc(OC2CCC2)c1-c1cc(F)c(N2CCC(CC(=O)O)C2)c(F)c1 (centres unmarked) [Example 591, {1-[4-(5-cyclobutoxy-3-methyl-isothiazol-4-yl)-2,6-difluoro-phenyl]-pyrrolidin-3-yl}-acetic acid] | < 200
36 | O=C(O)CC1CCN(c2c(F)cc(-c3ncc(F)c(OC4CCC4)n3)cc2F)C1 (centres unmarked) [Example 592, {1-[4-(4-cyclobutoxy-5-fluoro-pyrimidin-2-yl)-2,6-difluoro-phenyl]-pyrrolidin-3-yl}-acetic acid] | 200 to 2000
37 | O=C(O)CC1CCN(c2c(F)cc(-c3ncc(F)c(OCC4CC4)n3)cc2F)C1 (centres unmarked) [Example 593, {1-[4-(4-cyclopropylmethoxy-5-fluoro-pyrimidin-2-yl)-2,6-difluoro-phenyl]-pyrrolidin-3-yl}-acetic acid] | 200 to 2000
38 | CC(C)COc1nc(-c2cc(F)c(N3CCC(CC(=O)O)C3)c(F)c2)ncc1F (centres unmarked) [Example 594, {1-[2,6-difluoro-4-(5-fluoro-4-isobutoxy-pyrimidin-2-yl)-phenyl]-pyrrolidin-3-yl}-acetic acid] | 200 to 2000
